# From patent publication US8247211B2, “Glycopeptide antibiotics” (American Cyanamid Company, priority 2001, dated 2012)
# How the values were obtained:
# [1] = tested on: Staphylococcus aureus-SMITH (GC 4543); assay: Acute lethal infection in mice (ED50); format: in vivo; settings: female CD-1 mice, intraperitoneal challenge, intravenous dose 30 min. after infection, 7 day survival ratios
# How it was run: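 Groups of five female CD-1 mice per dose got intravenous antibiotic in saline or 5% dextrose half an hour after intraperitoneal infection sufficient to kill controls within 24-48 hr. Seven-day survival data from three experiments were combined to derive ED50.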
# [2] = tested on: Escherichia coli; assay: In vitro antibacterial evaluation: minimum inhibitory concentration (MIC), broth dilution method; format: cell-based; settings: 18 hours at 35° C.
# How it was run: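 Inoculum: 5×10^5 CFU/mL. Range: 64-0.06 μg/mL. Medium: Muller-Hinton II […]; NCCLS M7-A2 broth dilution. Endpoint: lowest concentration inhibiting growth. Strains include methicillin-, penicillin- and/or vancomycin-resistant clinical isolates.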
# [3] = tested on: Enterococcus sp.; assay: as above; format: cell-based; settings: 18 hours at 35° C.
# How it was run: (§1)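 Using Muller-Hinton II […] and an inoculum of 5×10^5 CFU/mL, antibiotic dilutions from 64 down to 0.06 μg/mL were tested following NCCLS M7-A2. The MIC is the lowest concentration inhibiting growth, including in methicillin-, penicillin- or vancomycin-resistant clinical isolates.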
# [4] = tested on: Staphylococcus sp.; assay: as above; format: cell-based
# How it was run: as §1
# [5] = tested on: Streptococcus sp.; assay: as above; format: cell-based; settings: 18 hours at 35° C.
# How it was run: as §1
# [6] = Anatomic pathology (heart and kidney histopathology) in mice; format: in vivo, CD-1 mice; settings: 20 mg/kg intravenously daily for 9 days, microscopic histopathology on day 10
# How it was run: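 Histopathology on H&E-stained, paraffin-embedded sections, subjectively scored (slight, mild, moderate, marked, severe) relative to untreated controls. Dosing: glycopeptide antibiotics 20 mg/kg intravenously once daily ×9 days in 20-day-old CD-1 mice, n=5 per group including vehicle.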
# [7] = format: in vivo; settings: mice, 20 mg/kg intravenously daily for 9 days, serum on day 10
# Description: 20-day-old CD-1 mice were divided into a vehicle control group (5 mice) and a treatment group (5 mice). Samples of glycopeptide antibiotics were administered at 20 mg/kg intravenously daily for 9 days. Animals were necropsied on day 10 Sera were analyzed for BUN (blood urea nitrogen), creatinine, AST (aspartic aminotransferase), and ALT (alanine aminotransferase) by routine, standard, automated methods using an Hitachi 747 chemistry analyzer.
# [8] = Enterococcus faecalis (ATCC 29212)
# [9] = Enterococcus faecalis (GC 2242)
# [10] = Enterococcus faecalis (GC 2691)
# [11] = Enterococcus faecalis (GC 3059)
# [12] = Enterococcus faecalis (GC 4552)
# [13] = Enterococcus faecalis (GC 4553)
# [14] = Enterococcus faecalis (GC 4554)
# [15] = Enterococcus faecalis (GC 6189)
# [16] = broth dilution, inoculum 5×10^5 CFU/mL
# [17] = Streptococcus agalactiae (GC 4564)
# [18] = Streptococcus pneumoniae (ATCC 6301)
# [19] = Streptococcus pneumoniae (GC 1894)
# [20] = Streptococcus pneumoniae (GC 4565)
# [21] = Streptococcus pyogenes (GC 4563)
smiles,measurement,setting,value
N=C1NCC(C(O)C2NC(=O)C(Cc3ccc(OC4OC(CO)C(OC5OC6COC7(OC6C(O)C5O)C5CC6CC(C5)CC7C6)C(O)C4O)cc3)NC(=O)C(Cc3ccccc3)NC(=O)CNC(=O)C(CO)NC(=O)C(C(O)C3CNC(=N)N3C3OC(CO)C(O)C(O)C3O)NC2=O)N1 (stereo not shown) [Example 220],"median effective dose (ED50), Staphylococcus aureus-SMITH (GC 4543)",[1],0.19 mg/kg
same,MIC Escherichia coli (ATCC 25922),[2],32 µg/mL
same,MIC Escherichia coli (GC 4559),[2],16 µg/mL
same,MIC Escherichia coli (GC 4560),[2],0.5 µg/mL
same,MIC Enterococcus avium (GC 4558),[3]; Enterococcus avium (GC 4558),2 µg/mL
same,MIC Enterococcus faecalis (ATCC 29212),[3]; [8],2 µg/mL
same,MIC Enterococcus faecalis (GC 2242),[3]; [9],1 µg/mL
same,MIC Enterococcus faecalis (GC 2691),[3]; [10],2 µg/mL
same,MIC Enterococcus faecalis (GC 3059),[3]; [11],2 µg/mL
same,MIC Enterococcus faecalis (GC 4552),[3]; [12],2 µg/mL
same,MIC Enterococcus faecalis (GC 4553),[3]; [13],1 µg/mL
same,MIC Enterococcus faecalis (GC 4554),[3]; [14],2 µg/mL
same,MIC Enterococcus faecalis (GC 6189),[3]; [15],1 µg/mL
same,MIC Enterococcus faecium (GC 2243),[3]; Enterococcus faecium (GC 2243),1 µg/mL
same,MIC Enterococcus faecium (GC 4556),[3]; Enterococcus faecium (GC 4556),1 µg/mL
same,MIC Enterococcus faecium (GC 4557),[3]; Enterococcus faecium (GC 4557),1 µg/mL
same,MIC Enterococcus avium (GC 4558),[3]; [16],2 µg/mL
same,MIC Enterococcus faecalis (ATCC 29212),[3]; [16],2 µg/mL
same,MIC Enterococcus faecalis (GC 2242),[3]; [16],1 µg/mL
same,MIC Enterococcus faecalis (GC 2691),[3]; [16],2 µg/mL
same,MIC Enterococcus faecalis (GC 3059),[3]; [16],2 µg/mL
same,MIC Enterococcus faecalis (GC 4552),[3]; [16],2 µg/mL
same,MIC Enterococcus faecalis (GC 4553),[3]; [16],1 µg/mL
same,MIC Enterococcus faecalis (GC 4554),[3]; [16],2 µg/mL
same,MIC Enterococcus faecalis (GC 6189),[3]; [16],1 µg/mL
same,MIC Enterococcus faecium (GC 2243),[3]; [16],1 µg/mL
same,MIC Enterococcus faecium (GC 4556),[3]; [16],1 µg/mL
same,MIC Enterococcus faecium (GC 4557),[3]; [16],1 µg/mL
same,MIC Staphylococcus aureus (ATCC 29213),[4]; strain ATCC 29213,0.5 µg/mL
same,MIC Staphylococcus aureus (GC 1131),[4]; strain GC 1131,1 µg/mL
same,MIC Staphylococcus aureus (GC 3051),[4]; strain GC 3051,1 µg/mL
same,MIC Staphylococcus aureus (GC 3053),[4]; strain GC 3053,1 µg/mL
same,MIC Staphylococcus aureus (GC 4541),[4]; strain GC 4541,1 µg/mL
same,MIC Staphylococcus aureus (GC 4542),[4]; strain GC 4542,0.5 µg/mL
same,MIC Staphylococcus aureus-SMITH (GC 4543),[4]; strain GC 4543,1 µg/mL
same,MIC Staphylococcus aureus (GC 4544),[4]; strain GC 4544,1 µg/mL
same,MIC Staphylococcus aureus (GC 4545),[4]; strain GC 4545,0.5 µg/mL
same,MIC Staphylococcus haemolyticus (GC 4546),[4]; strain GC 4546,0.25 µg/mL
same,MIC Coagulase Negative Staphylococcus (GC 4547),[4]; strain GC 4547,0.5 µg/mL
same,MIC Coagulase Negative Staphylococcus (GC 4548),[4]; strain GC 4548,0.25 µg/mL
same,MIC Coagulase Negative Staphylococcus (GC 4549),[4]; strain GC 4549,0.25 µg/mL
same,MIC Coagulase Negative Staphylococcus (GC 4551),[4]; strain GC 4551,0.5 µg/mL
same,MIC Streptococcus agalactiae (GC 4564),[5]; [17],<0.06 µg/mL
same,MIC Streptococcus pneumoniae (ATCC 6301),[5]; [18],<0.06 µg/mL
same,MIC Streptococcus pneumoniae (GC 1894),[5]; [19],<0.06 µg/mL
same,MIC Streptococcus pneumoniae (GC 4565),[5]; [20],<0.06 µg/mL
same,MIC Streptococcus pyogenes (GC 4563),[5]; [21],<0.06 µg/mL
same,MIC Streptococcus agalactiae (GC 4564),[5]; [16],<0.06 µg/mL
same,MIC Streptococcus pneumoniae (ATCC 6301),[5]; [16],<0.06 µg/mL
same,MIC Streptococcus pneumoniae (GC 1894),[5]; [16],<0.06 µg/mL
same,MIC Streptococcus pneumoniae (GC 4565),[5]; [16],<0.06 µg/mL
same,MIC Streptococcus pyogenes (GC 4563),[5]; [16],<0.06 µg/mL
same,"Anatomical Pathology (Day 10), Heart",[6],0
same,"Anatomical Pathology (Day 10), Kidney",[6],+++
same,"Clinical Chemistry (Day 10) % of Control, BUN",[7],149%
same,"Clinical Chemistry (Day 10) % of Control, Creatinine",[7],121%
"COc1ccc2cc(COCC3OC(OC4C(CO)OC(Oc5ccc(CC6NC(=O)C(C(C)c7ccccc7)NC(=O)CNC(=O)C(CO)NC(=O)C(CC7CNC(=N)N7C7OC(CO)C(O)C(O)C7O)NC(=O)C(CC7CNC(=N)N7)NC6=O)cc5)C(O)C4O)C(O)C(O)C3O)ccc2c1 (stereo not drawn) [Example 245, Cyclo[3-(2-iminoimidazolidin-4-yl)alanyl-3-(3-hexopyranosyl-2-iminoimidazolidin-4-yl)-alanylserylglycyl-β-methylphenylalanyl-O-[4-O-[6-O-[(6-methoxy-2-naphthyl)methyl]-hexopyranosyl)hexopyranosyl]tyrosyl]]","median effective dose (ED50), Staphylococcus aureus-SMITH (GC 4543)",[1],4 mg/kg
same,MIC Escherichia coli (ATCC 25922),[2],64 µg/mL
same,MIC Escherichia coli (GC 4559),[2],32 µg/mL
same,MIC Escherichia coli (GC 4560),[2],4 µg/mL
same,MIC Enterococcus avium (GC 4558),[3]; Enterococcus avium (GC 4558),16 µg/mL
same,MIC Enterococcus faecalis (ATCC 29212),[3]; [8],32 µg/mL
same,MIC Enterococcus faecalis (GC 2242),[3]; [9],16 µg/mL
same,MIC Enterococcus faecalis (GC 2691),[3]; [10],32 µg/mL
same,MIC Enterococcus faecalis (GC 3059),[3]; [11],16 µg/mL
same,MIC Enterococcus faecalis (GC 4552),[3]; [12],16 µg/mL
same,MIC Enterococcus faecalis (GC 4553),[3]; [13],16 µg/mL
same,MIC Enterococcus faecalis (GC 4554),[3]; [14],32 µg/mL
same,MIC Enterococcus faecalis (GC 6189),[3]; [15],32 µg/mL
same,MIC Enterococcus faecium (GC 2243),[3]; Enterococcus faecium (GC 2243),16 µg/mL
same,MIC Enterococcus faecium (GC 4556),[3]; Enterococcus faecium (GC 4556),16 µg/mL
same,MIC Enterococcus faecium (GC 4557),[3]; Enterococcus faecium (GC 4557),4 µg/mL
same,MIC Enterococcus faecalis (GC 2242),[3]; [16],16 µg/mL
same,MIC Enterococcus faecalis (GC 2691),[3]; [16],32 µg/mL
same,MIC Enterococcus faecalis (GC 3059),[3]; [16],16 µg/mL
same,MIC Coagulase Negative Staphylococcus (GC 4547),"[4]; Coagulase Negative Staphylococcus (GC 4547), 18 hours at 35° C.",4 µg/mL
same,MIC Coagulase Negative Staphylococcus (GC 4548),"[4]; Coagulase Negative Staphylococcus (GC 4548), 18 hours at 35° C.",2 µg/mL
same,MIC Coagulase Negative Staphylococcus (GC 4549),"[4]; Coagulase Negative Staphylococcus (GC 4549), 18 hours at 35° C.",1 µg/mL
same,MIC Coagulase Negative Staphylococcus (GC 4551),"[4]; Coagulase Negative Staphylococcus (GC 4551), 18 hours at 35° C.",8 µg/mL
same,MIC Coagulase Negative Staphylococcus (GC 6257),"[4]; Coagulase Negative Staphylococcus (GC 6257), 18 hours at 35° C.",2 µg/mL
same,MIC Staphylococcus aureus (ATCC 29213),"[4]; Staphylococcus aureus (ATCC 29213), 18 hours at 35° C.",4 µg/mL
same,MIC Staphylococcus aureus (GC 1131),"[4]; Staphylococcus aureus (GC 1131), 18 hours at 35° C.",8 µg/mL
same,MIC Staphylococcus aureus (GC 3051),"[4]; Staphylococcus aureus (GC 3051), 18 hours at 35° C.",4 µg/mL
same,MIC Staphylococcus aureus (GC 3053),"[4]; Staphylococcus aureus (GC 3053), 18 hours at 35° C.",4 µg/mL
same,MIC Staphylococcus aureus (GC 4541),"[4]; Staphylococcus aureus (GC 4541), 18 hours at 35° C.",4 µg/mL
same,MIC Staphylococcus aureus (GC 4542),"[4]; Staphylococcus aureus (GC 4542), 18 hours at 35° C.",4 µg/mL
same,MIC Staphylococcus aureus (GC 4544),"[4]; Staphylococcus aureus (GC 4544), 18 hours at 35° C.",8 µg/mL
same,MIC Staphylococcus aureus (GC 4545),"[4]; Staphylococcus aureus (GC 4545), 18 hours at 35° C.",4 µg/mL
same,MIC Staphylococcus aureus-SMITH (GC 4543),"[4]; Staphylococcus aureus-SMITH (GC 4543), 18 hours at 35° C.",4 µg/mL
same,MIC Staphylococcus haemolyticus (GC 4546),"[4]; Staphylococcus haemolyticus (GC 4546), 18 hours at 35° C.",4 µg/mL
same,MIC Streptococcus agalactiae (GC 4564),[5]; [17],4 µg/mL
same,MIC Streptococcus pneumoniae (ATCC 6301),[5]; [18],2 µg/mL
same,MIC Streptococcus pneumoniae (GC 1894),[5]; [19],1 µg/mL
same,MIC Streptococcus pneumoniae (GC 4565),[5]; [20],4 µg/mL
same,MIC Streptococcus pyogenes (GC 4563),[5]; [21],4 µg/mL
same,MIC Streptococcus agalactiae (GC 4564),[5]; [16],4 µg/mL
same,MIC Streptococcus pneumoniae (ATCC 6301),[5]; [16],2 µg/mL
same,MIC Streptococcus pneumoniae (GC 1894),[5]; [16],1 µg/mL
same,MIC Streptococcus pneumoniae (GC 4565),[5]; [16],4 µg/mL
same,MIC Streptococcus pyogenes (GC 4563),[5]; [16],4 µg/mL
same,"Anatomical Pathology (Day 10), Heart",[6],0
same,"Anatomical Pathology (Day 10), Kidney",[6],+++
same,"Clinical Chemistry (Day 10) % of Control, BUN",[7],+160%
